Results reported in publication PMC10776900, “Identification of structural motifs critical for human G6PC2 function informed by sequence analysis and an AlphaFold2-predicted model” (Bioscience Reports, 2024).

Assays:
human G6PC2 V219 variant [1] = target: T1, human G6PC2 V219 variant (Homo sapiens, UniProt Q9NQR9); experiment: G6Pase activity of enzyme purified with versus without CHS; type: biochemical; details: CHS 0.05% in solubilisation, 0.02% in later buffers, LMNG micelles; putative CRAC motif
T1 construct: purified from HEK293S (BacMam) in LMNG micelles

human G6PC2 V219 variant [2] = target: T1, human G6PC2 V219 variant; experiment: G6Pase activity with acute addition of cholesterol to purified enzyme; type: biochemical; details: purified without CHS, LMNG micelles; putative CRAC motif

Structure (SMILES)	% reduction of Vmax (human G6PC2 V219 variant [1])	G6Pase activity with acute addition of cholesterol to purified enzyme (human G6PC2 V219 variant [2])
CC(C)CCC[C@@H](C)[C@H]1CC[C@H]2[C@@H]3CC=C4C[C@@H](OC(=O)CCC(=O)O)CC[C@]4(C)[C@H]3CC[C@]12C [cholesterol hemi-succinate]	~ 90%	–
CC(C)CCC[C@@H](C)[C@H]1CC[C@H]2[C@@H]3CC=C4C[C@@H](O)CC[C@]4(C)[C@H]3CC[C@]12C [cholesterol]	–	addition of cholesterol decreased the activity of the V219 but not the L219 variant
